According to patent publication US9655887B2, “Pharmaceutical composition and the use thereof, and application regime of said pharmaceutical composition for on-demand contraception” (BAYER PHARMA AKTIENGESELLSCHAFT, priority 2013, dated 2017):

These molecules were tested against EP2 subtype of the human PGE2 receptor (hEP2 receptor) (Homo sapiens, UniProt P43116) (assay: cAMP antagonism test, human prostaglandin E2 (subtype EP2) receptor signal).
Type: cell-based
Text: 1. Detection of Antagonism to the Human Prostaglandin E2 (Subtype EP2) Receptor Signal
The binding of PGE2 to the EP2 subtype of the human PGE2 receptor induces the activation of membrane-located adenylate cyclases and leads to the formation of cAMP. In the presence of the phosphodiesterase inhibitor IBMX, the cAMP accumulated owing to this stimulation and released by cell lysis is used in a competitive detection method. In this test, the cAMP present in the lysate competes with a fluorescence-labelled cAMP (cAMP-d2) for binding to an Eu cryptate-labelled anti-cAMP antibody.
In the absence of cellular cAMP, a maximal signal is produced, which is attributable to the binding of this cAMP-d2 molecule to the antibody. After excitation of the […] at 337 nm, there is a fluorescence resonance energy transfer (FRET) to the Eu cryptate molecules of the anti-cAMP antibody (labelled therewith), followed by a long-lasting emission signal at 665 nm (and at […]). Both signals are measured in a suitable measurement instrument with a time delay, i.e. after decay of the background fluorescence. Any increase in the low FRET signal caused by prostaglandin E2 administration (measured as well ratio change=emission665nm/emission620nm*10000) indicates the action of antagonists.
1.2.1. Test for Antagonism (Data Per Well of a 384-Well Plate):
To a test plate with the substance solutions already added (0.05 μl; 100% DMSO, concentration range from 0.8 nM-16.5 nM) were added 4 μl of a cAMP-d2/cell suspension (625000 cells/ml). After a 20-minute preincubation at room temperature (RT), 2 μl of a 3×PGE2 solution (1.5 nM, in PBS-IBMX) were added and incubated in the presence of the agonist for a further 60 mins at RT (volume: […]). Next the reaction was stopped by addition of 2 μl of lysis buffer and incubated for a further 20 mins at RT before the actual measurement (volume: ˜8 μl).

Chain of EP2 subtype of the human PGE2 receptor (hEP2 receptor) (P43116 whole entry): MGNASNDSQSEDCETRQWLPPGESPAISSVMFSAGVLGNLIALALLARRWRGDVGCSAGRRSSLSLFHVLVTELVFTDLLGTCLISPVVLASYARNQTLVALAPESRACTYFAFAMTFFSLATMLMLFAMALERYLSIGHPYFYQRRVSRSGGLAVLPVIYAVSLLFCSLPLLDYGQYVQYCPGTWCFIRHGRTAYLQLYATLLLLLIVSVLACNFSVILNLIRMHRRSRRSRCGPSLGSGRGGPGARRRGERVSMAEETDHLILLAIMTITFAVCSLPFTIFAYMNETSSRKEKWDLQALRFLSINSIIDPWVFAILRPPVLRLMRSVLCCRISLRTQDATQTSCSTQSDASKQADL

IC50, > 50 nM:
COCCNC(=O)c1ccc2nn(CC3CCN(C(=O)c4ccc(Oc5ccccc5)cc4)CC3)cc2c1C [Example E18, N-(2-methoxyethyl)-4-methyl-2-{[1-(4-phenoxybenzoyl)piperidin-4-yl]methyl}-2H-indazole-5-carboxamide]
[2H]C([2H])([2H])OC([2H])([2H])C([2H])([2H])NC(=O)c1ccc2nn(CC3CCN(C(=O)c4ccc(Cl)cc4)CC3)cc2c1C [Example E85, 2-{[1-(4-chlorobenzoyl)piperidin-4-yl]methyl}-4-methyl-N-{2-[(^2H3)methyloxy]-(^2H4)ethyl}-2H-indazole-5-carboxamide]
COCCNC(=O)c1ccc2nn(CC3CCN(C(=O)c4ccc(Oc5cccc(F)c5)cc4)CC3)cc2c1C [Example E174, 2-({1-[4-(3-fluorophenoxy)benzoyl]piperidin-4-yl}methyl)-N-(2-methoxyethyl)-4-methyl-2H-indazole-5-carboxamide]
Cc1c(C(=O)NCC(F)(F)F)ccc2nn(CC3CCN(C(=O)c4ccc(Oc5ccc(C(F)(F)F)cn5)cc4)CC3)cc12 [Example E127, 4-methyl-N-(2,2,2-trifluoroethyl)-2-{[1-(4-{[5-(trifluoromethyl)pyridin-2-yl]oxy}-benzoyl)piperidin-4-yl]methyl}-2H-indazole-5-carboxamide]
COc1cc(F)ccc1-c1ccc(C(=O)N2CCC(Cn3cc4c(C)c(C(=O)NCC(F)(F)F)ccc4n3)CC2)cc1 [Example E143, 2-({1-[(4′-fluoro-2′-methoxybiphenyl-4-yl)carbonyl]piperidin-4-yl}methyl)-4-methyl-N-(2,2,2-trifluoroethyl)-2H-indazole-5-carboxamide]
COCCNC(=O)c1ccc2nn(CC3CCN(C(=O)c4ccc(-c5ccc(OC)cn5)cc4)CC3)cc2c1C [Example E186, N-(2-methoxyethyl)-2-({1-[4-(5-methoxypyridin-2-yl)benzoyl]piperidin-4-yl}methyl)-4-methyl-2H-indazole-5-carboxamide]
COCCNC(=O)c1ccc2nn(CC3CCN(C(=O)c4ccc(Oc5ccc(C(C)(C)C)cc5)cc4)CC3)cc2c1C [Example E15, 2-({1-[4-(4-tert-butylphenoxy)benzoyl]piperidin-4-yl}methyl)-N-(2-methoxyethyl)-4-methyl-2H-indazole-5-carboxamide]
COCCNC(=O)c1ccc2nn(CC3CCN(C(=O)c4ccc(-c5ccccc5C)cc4)CC3)cc2c1C [Example E48, N-(2-methoxyethyl)-4-methyl-2-({1-[(2′-methylbiphenyl-4-yl)carbonyl]piperidin-4-yl}-methyl)-2H-indazole-5-carboxamide]
COCCNC(=O)c1ccc2nn(CC3CCN(C(=O)c4ccc(Oc5ccccc5F)cc4)CC3)cc2c1C [Example E179, 2-({1-[4-(2-fluorophenoxy)benzoyl]piperidin-4-yl}methyl)-N-(2-methoxyethyl)-4-methyl-2H-indazole-5-carboxamide]
Cc1c(C(=O)NCCOCC2CC2)ccc2nn(CC3CCN(C(=O)c4ccc(-c5ccc(F)cc5)cc4)CC3)cc12 [Example E63, N-[2-(cyclopropylmethoxy)ethyl]-2-({1-[(4′-fluorobiphenyl-4-yl)carbonyl]piperidin-4-yl}methyl)-4-methyl-2H-indazole-5-carboxamide]
COCCNC(=O)c1ccc2nn(CC3CCN(C(=O)c4ccc(-c5cncc(C(F)(F)F)c5)cc4)CC3)cc2c1C [Example E200, N-(2-methoxyethyl)-4-methyl-2-[(1-{4-[5-(trifluoromethyl)pyridin-3-yl]benzoyl}-piperidin-4-yl)methyl]-2H-indazole-5-carboxamide]
COCCNC(=O)c1ccc2nn(CC3CCN(C(=O)c4ccc(Oc5cccc(C(F)(F)F)c5)cc4)CC3)cc2c1C [Example E168, N-(2-methoxyethyl)-4-methyl-2-[(1-{4-[3-(trifluoromethyl)phenoxy]benzoyl}piperidin-4-yl)methyl]-2H-indazole-5-carboxamide]
COCCNC(=O)c1ccc2nn(CC3CCN(C(=O)c4ccc(OC(F)F)cc4F)CC3)cc2c1C [Example E38, 2-({1-[4-(difluoromethoxy)-2-fluorobenzoyl]piperidin-4-yl}methyl)-N-(2-methoxy-ethyl)-4-methyl-2H-indazole-5-carboxamide]
COCCNC(=O)c1ccc2nn(CC3CCN(C(=O)c4ccc(-c5ccc(C(F)(F)F)nc5)cc4)CC3)cc2c1C [Example E187, N-(2-methoxyethyl)-4-methyl-2-[(1-{4-[6-(trifluoromethyl)pyridin-3-yl]benzoyl}-piperidin-4-yl)methyl]-2H-indazole-5-carboxamide]
Cc1c(C(=O)NCCOC2CCC2)ccc2nn(CC3CN(C(=O)c4ccc(OC(F)(F)F)cc4)C3)cc12 [Example E101, N-[2-(cyclobutyloxy)ethyl]-4-methyl-2-({1-[4-(trifluoromethoxy)benzoyl]azetidin-3-yl}methyl)-2H-indazole-5-carboxamide]
Cc1c(C(=O)NCCOCC2CC2)ccc2nn(CC3CCN(C(=O)c4ccc(Oc5ccc(F)cc5)cc4)CC3)cc12 [Example E61, N-[2-(cyclopropylmethoxy)ethyl]-2-({1-[4-(4-fluorophenoxy)benzoyl]piperidin-4-yl}-methyl)-4-methyl-2H-indazole-5-carboxamide]
COCCNC(=O)c1ccc2nn(CC3CCN(C(=O)c4ccc(SC(F)(F)F)cc4)CC3)cc2c1C [Example E55, N-(2-methoxyethyl)-4-methyl-2-[(1-{4-[(trifluoromethyl)sulphanyl]benzoyl}piperidin-4-yl)methyl]-2H-indazole-5-carboxamide]
COCCNC(=O)c1ccc2nn(CC3CCN(C(=O)c4ccc(-c5ccc(C#N)cc5C)cc4)CC3)cc2c1C [Example E180, 2-({1-[(4′-cyano-2′-methylbiphenyl-4-yl)carbonyl]piperidin-4-yl}methyl)-N-(2-methoxyethyl)-4-methyl-2H-indazole-5-carboxamide]
COCCNC(=O)c1ccc2nn(CC3CCN(C(=O)c4ccc(-c5ccc(C(C)(C)C#N)cc5)cc4)CC3)cc2c1C [Example E185, 2-[(1-{[4′-(2-cyanopropan-2-yl)biphenyl-4-yl]carbonyl}piperidin-4-yl)methyl]-N-(2-methoxyethyl)-4-methyl-2H-indazole-5-carboxamide]
COCCNC(=O)c1ccc2nn(CC3CCN(C(=O)c4ccc(OC(F)(F)F)cc4)CC3)cc2c1C [Example E53, N-(2-methoxyethyl)-4-methyl-2-({1-[4-(trifluoromethoxy)benzoyl]piperidin-4-yl}-methyl)-2H-indazole-5-carboxamide]
COCCNC(=O)c1ccc2nn(CC3CN(C(=O)c4ccc(Cl)c(C(F)(F)F)c4)C3)cc2c1C [Example E93, 2-({1-[4-chloro-3-(trifluoromethyl)benzoyl]azetidin-3-yl}methyl)-N-(2-methoxyethyl)-4-methyl-2H-indazole-5-carboxamide]
Cc1c(C(=O)NCCOCC(F)(F)F)ccc2nn(CC3CCN(C(=O)c4ccc(Cl)cc4)CC3)cc12 [Example E65, 2-{[1-(4-chlorobenzoyl)piperidin-4-yl]methyl}-4-methyl-N-[2-(2,2,2-trifluoroethoxy)-ethyl]-2H-indazole-5-carboxamide]
COCCNC(=O)c1ccc2nn(CC3CN(C(=O)c4ccc(Oc5ccc(F)cc5)cc4)C3)cc2c1C [Example E109, 2-({1-[4-(4-fluorophenoxy)benzoyl]azetidin-3-yl}methyl)-N-(2-methoxyethyl)-4-methyl-2H-indazole-5-carboxamide]
COCCNC(=O)c1ccc2nn(CC3CCN(C(=O)c4ccc(-c5ccc(OC)cc5F)cc4F)CC3)cc2c1C [Example E177, 2-({1-[(2′,3-difluoro-4′-methoxybiphenyl-4-yl)carbonyl]piperidin-4-yl}methyl)-N-(2-methoxyethyl)-4-methyl-2H-indazole-5-carboxamide]
COCCNC(=O)c1ccc2nn(CC3CN(C(=O)c4ccc(Oc5ccc(Cl)cc5)cc4)C3)cc2c1C [Example E116, 2-({1-[4-(4-chlorophenoxy)benzoyl]azetidin-3-yl}methyl)-N-(2-methoxyethyl)-4-methyl-2H-indazole-5-carboxamide]
